In patent US9527867B2, “Antibacterial biaromatic derivatives” (Actelion Pharmaceuticals Ltd., priority 2013, dated 2016):
≈ marks a conversion by molar mass, not a printed value.

How the values were obtained:
Assay in all cases: Bacterial growth minimal inhibitory concentration (broth microdilution, CLSI M7-A7)
Format in all cases: cell-based
[1] = system: Moraxella catarrhalis A894; conditions: Moraxella catarrhalis, A894, cation-adjusted Mueller-Hinton Broth, quinolone-sensitive strain
Summary of the method: (§1)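 Broth microdilution after CLSI M7-A7 in cation-adjusted Mueller-Hinton medium gave MIC values in mg/L.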

[2] = system: Acinetobacter baumannii T6474; conditions: Acinetobacter baumannii, T6474, cation-adjusted Mueller-Hinton Broth, multiply-resistant strain (in particular quinolone-resistant)
Summary of the method: as §1

[3] = system: Enterococcus faecium A949; conditions: Enterococcus faecium, A949, cation-adjusted Mueller-Hinton Broth, multiply-resistant strain (in particular quinolone-resistant), read-out: MIC for E. faecium A949
Summary of the method: as §1

[4] = system: Staphylococcus aureus A798; conditions: Staphylococcus aureus, A798, cation-adjusted Mueller-Hinton Broth, multiply-resistant strain (in particular quinolone-resistant), read-out: MIC for S. aureus A798
Summary of the method: as §1

[5] = system: Staphylococcus aureus ATCC29213; conditions: Staphylococcus aureus, ATCC29213, cation-adjusted Mueller-Hinton Broth, methicillin-sensitive and quinolone-sensitive strain, read-out: MIC for S. aureus ATCC29213
Summary of the method: as §1

SMILES | MIC [1] [µg/mL] | MIC [2] [µg/mL] | MIC [3] [µg/mL] | MIC [4] [µg/mL] | MIC [5] [µg/mL]
O=C1COc2ccc(N3C[C@H](CCNCc4cccc(-c5cccc(OCCCCO)c5)c4)OC3=O)nc2N1 [Example 67, 6-[(S)-5-(2-{[3′-(4-hydroxy-butoxy)-biphenyl-3-ylmethyl]-amino}-ethyl)-2-oxo-oxazolidin-3-yl]-4H-pyrido[3,2-b][1,4]oxazin-3-one] | 0.063 (≈ 0.118 µM) | 2 (≈ 3.76 µM) | 8 (≈ 15 µM) | 0.5 (≈ 0.939 µM) | 1 (≈ 1.88 µM)
CCOC(=O)COc1cccc(-c2cccc(CNCC[C@H]3CN(c4ccc5c(n4)NC(=O)CO5)C(=O)O3)c2)c1 [Example 68, [3′-({2-[(S)-2-oxo-3-(3-oxo-3,4-dihydro-2H-pyrido[3,2-b][1,4]oxazin-6-yl)-oxazolidin-5-yl]-ethylamino}-methyl)-biphenyl-3-yloxy]-acetic acid ethyl ester] | 0.125 (≈ 0.229 µM) | 8 (≈ 14.6 µM) | > 8 | 1 (≈ 1.83 µM) | 1 (≈ 1.83 µM)
CCOc1cccc(-c2cccc(CNCC[C@H]3CN(c4ccc5c(n4)NC(=O)CO5)C(=O)O3)c2)c1 [Example 70, 6-((S)-5-{2-[(3′-ethoxy-biphenyl-3-ylmethyl)-amino]-ethyl}-2-oxo-oxazolidin-3-yl)-4H-pyrido[3,2-b][1,4]oxazin-3-one] | 0.063 (≈ 0.129 µM) | 2 (≈ 4.09 µM) | 8 (≈ 16.4 µM) | 0.5 (≈ 1.02 µM) | 1 (≈ 2.05 µM)
N#CC1(COc2cccc(-c3cccc(CNCC[C@H]4CN(c5ccc6c(n5)NC(=O)CO6)C(=O)O4)c3)c2)CCC1 [Example 71, 1-[3′-({2-[(S)-2-oxo-3-(3-oxo-3,4-dihydro-2H-pyrido[3,2-b][1,4]oxazin-6-yl)-oxazolidin-5-yl]-ethylamino}-methyl)-biphenyl-3-yloxymethyl]-cyclobutanecarbonitrile] | 0.25 (≈ 0.452 µM) | > 8 | 8 (≈ 14.5 µM) | 1 (≈ 1.81 µM) | 1 (≈ 1.81 µM)
COc1cccc(-c2cncc(CNCC[C@@H]3CN(c4ccc5c(c4)NC(=O)CS5)C(=O)O3)c2)c1 [Example 72, 6-[(R)-5-(2-{[5-(3-methoxy-phenyl)-pyridin-3-ylmethyl]-amino}-ethyl)-2-oxo-oxazolidin-3-yl]-4H-benzo[1,4]thiazin-3-one] | 0.063 (≈ 0.128 µM) | 1 (≈ 2.04 µM) | 4 (≈ 8.15 µM) | 1 (≈ 2.04 µM) | 0.5 (≈ 1.02 µM)
N#Cc1ncccc1-c1cccc(CNCC[C@H]2CN(c3ccc4c(n3)NC(=O)CO4)C(=O)O2)c1 [Example 73, 3-[3-({2-[(S)-2-oxo-3-(3-oxo-3,4-dihydro-2H-pyrido[3,2-b][1,4]oxazin-6-yl)-oxazolidin-5-yl]-ethylamino}-methyl)-phenyl]-pyridine-2-carbonitrile] | ≤ 0.063 | 1 (≈ 2.13 µM) | 16 (≈ 34 µM) | 2 (≈ 4.25 µM) | 0.5 (≈ 1.06 µM)
COc1cc(-c2cccc(CNCC[C@H]3CN(c4ccc5c(n4)NC(=O)CO5)C(=O)O3)c2)ccc1C#N [Example 75, 3-methoxy-3′-({2-[(S)-2-oxo-3-(3-oxo-3,4-dihydro-2H-pyrido[3,2-b][1,4]oxazin-6-yl)-oxazolidin-5-yl]-ethylamino}-methyl)-biphenyl-4-carbonitrile] | ≤ 0.063 | 1 (≈ 2 µM) | 8 (≈ 16 µM) | 0.5 (≈ 1 µM) | 0.5 (≈ 1 µM)
COc1ccc(C#N)cc1-c1cccc(CNCC[C@H]2CN(c3ccc4c(n3)NC(=O)CO4)C(=O)O2)c1 [Example 76, 6-methoxy-3′-({2-[(S)-2-oxo-3-(3-oxo-3,4-dihydro-2H-pyrido[3,2-b][1,4]oxazin-6-yl)-oxazolidin-5-yl]-ethylamino}-methyl)-biphenyl-3-carbonitrile] | ≤ 0.063 | 2 (≈ 4 µM) | 8 (≈ 16 µM) | 1 (≈ 2 µM) | 0.5 (≈ 1 µM)
COC(=O)c1cccc(-c2cccc(CNCC[C@H]3CN(c4ccc5c(n4)NC(=O)CO5)C(=O)O3)c2)c1 [Example 77, 3′-({2-[(S)-2-oxo-3-(3-oxo-3,4-dihydro-2H-pyrido[3,2-b][1,4]oxazin-6-yl)-oxazolidin-5-yl]-ethylamino}-methyl)-biphenyl-3-carboxylic acid methyl ester] | ≤ 0.063 | 2 (≈ 3.98 µM) | 4 (≈ 7.96 µM) | 0.25 (≈ 0.497 µM) | 0.5 (≈ 0.995 µM)
COc1ccc(-c2cccc(CNCC[C@H]3CN(c4ccc5c(n4)NC(=O)CO5)C(=O)O3)c2)nn1 [Example 79, 6-((S)-5-{2-[3-(6-methoxy-pyridazin-3-yl)-benzylamino]-ethyl}-2-oxo-oxazolidin-3-yl)-4H-pyrido[3,2-b][1,4]oxazin-3-one] | 0.063 (≈ 0.132 µM) | 0.5 (≈ 1.05 µM) | 8 (≈ 16.8 µM) | 0.5 (≈ 1.05 µM) | 0.5 (≈ 1.05 µM)
COc1cnnc(-c2cccc(CNCC[C@H]3CN(c4ccc5c(c4)NC(=O)CO5)C(=O)O3)c2)c1 [Example 81, 6-((S)-5-{2-[3-(5-methoxy-pyridazin-3-yl)-benzylamino]-ethyl}-2-oxo-oxazolidin-3-yl)-4H-benzo[1,4]oxazin-3-one] | 0.063 (≈ 0.132 µM) | 1 (≈ 2.1 µM) | > 8 | 1 (≈ 2.1 µM) | 0.5 (≈ 1.05 µM)

Results, then the compound that gave them:

MIC [1] [µg/mL] | MIC [2] [µg/mL] | MIC [3] [µg/mL] | MIC [4] [µg/mL] | MIC [5] [µg/mL] | SMILES
≤ 0.016 | 0.5 (≈ 1.03 µM) | 2 (≈ 4.12 µM) | 0.5 (≈ 1.03 µM) | 0.25 (≈ 0.515 µM) | N#Cc1cccc(-c2cccc(CNCCc3nn(-c4ccc5c(n4)NC(=O)CO5)c(=O)o3)c2O)n1 [Example 61, 6-[2-hydroxy-3-({2-[5-oxo-4-(3-oxo-3,4-dihydro-2H-pyrido[3,2-b][1,4]oxazin-6-yl)-4,5-dihydro-[1,3,4]oxadiazol-2-yl]-ethylamino}-methyl)-phenyl]-pyridine-2-carbonitrile]
≤ 0.063 | 1 (≈ 2.13 µM) | 16 (≈ 34 µM) | 2 (≈ 4.25 µM) | 1 (≈ 2.13 µM) | N#Cc1cccnc1-c1cccc(CNCC[C@H]2CN(c3ccc4c(n3)NC(=O)CO4)C(=O)O2)c1 [Example 62, 2-[3-({2-[(S)-2-oxo-3-(3-oxo-3,4-dihydro-2H-pyrido[3,2-b][1,4]oxazin-6-yl)-oxazolidin-5-yl]-ethylamino}-methyl)-phenyl]-nicotinonitrile]
≤ 0.063 | 0.5 (≈ 1.09 µM) | 16 (≈ 34.7 µM) | 1 (≈ 2.17 µM) | 1 (≈ 2.17 µM) | O=C1COc2ccc(N3C[C@H](CCNCc4cccc(-c5cccc(O)c5)c4)OC3=O)nc2N1 [Example 63, 6-((S)-5-{2-[(3′-hydroxy-biphenyl-3-ylmethyl)-amino]-ethyl}-2-oxo-oxazolidin-3-yl)-4H-pyrido[3,2-b][1,4]oxazin-3-one]
≤ 0.063 | 16 (≈ 31.7 µM) | 16 (≈ 31.7 µM) | 2 (≈ 3.96 µM) | 1 (≈ 1.98 µM) | COc1ccc(OC)c(-c2cccc(CNCC[C@H]3CN(c4ccc5c(n4)NC(=O)CO5)C(=O)O3)c2)c1 [Example 64, 6-((S)-5-{2-[(2′,5′-dimethoxy-biphenyl-3-ylmethyl)-amino]-ethyl}-2-oxo-oxazolidin-3-yl)-4H-pyrido[3,2-b][1,4]oxazin-3-one]
≤ 0.063 | 2 (≈ 4 µM) | 16 (≈ 32 µM) | 1 (≈ 2 µM) | 1 (≈ 2 µM) | N#CCOc1cccc(-c2cccc(CNCC[C@H]3CN(c4ccc5c(n4)NC(=O)CO5)C(=O)O3)c2)c1 [Example 65, [3′-({2-[(S)-2-oxo-3-(3-oxo-3,4-dihydro-2H-pyrido[3,2-b][1,4]oxazin-6-yl)-oxazolidin-5-yl]-ethylamino}-methyl)-biphenyl-3-yloxy]-acetonitrile]
≤ 0.063 | 2 (≈ 4.26 µM) | 16 (≈ 34.1 µM) | 2 (≈ 4.26 µM) | 1 (≈ 2.13 µM) | N#Cc1ccc(-c2cccc(CNCC[C@H]3CN(c4ccc5c(n4)NC(=O)CO5)C(=O)O3)c2)cc1 [Example 66, 3′-({2-[(S)-2-oxo-3-(3-oxo-3,4-dihydro-2H-pyrido[3,2-b][1,4]oxazin-6-yl)-oxazolidin-5-yl]-ethylamino}-methyl)-biphenyl-4-carbonitrile]
≤ 0.016 | 0.25 (≈ 0.51 µM) | 0.5 (≈ 1.02 µM) | 0.063 (≈ 0.128 µM) | 0.125 (≈ 0.255 µM) | COc1cccc(-c2cccc(CNCCc3nn(-c4ccc5c(n4)NC(=O)CO5)c(=O)o3)c2O)n1 [Example 74, 6-(5-{2-[2-hydroxy-3-(6-methoxy-pyridin-2-yl)-benzylamino]-ethyl}-2-oxo-[1,3,4]oxadiazol-3-yl)-4H-pyrido[3,2-b][1,4]oxazin-3-one]
0.031 (≈ 0.0583 µM) | 1 (≈ 1.88 µM) | 8 (≈ 15 µM) | 1 (≈ 1.88 µM) | 0.5 (≈ 0.941 µM) | CNC(=O)COc1cccc(-c2cccc(CNCC[C@H]3CN(c4ccc5c(n4)NC(=O)CO5)C(=O)O3)c2)c1 [Example 78, N-methyl-2-[3′-({2-[(S)-2-oxo-3-(3-oxo-3,4-dihydro-2H-pyrido[3,2-b][1,4]oxazin-6-yl)-oxazolidin-5-yl]-ethylamino}-methyl)-biphenyl-3-yloxy]-acetamide]
0.031 (≈ 0.0658 µM) | 0.25 (≈ 0.53 µM) | > 8 | 0.5 (≈ 1.06 µM) | 0.5 (≈ 1.06 µM) | N#Cc1cnnc(-c2cccc(CNCC[C@H]3CN(c4ccc5c(n4)NC(=O)CO5)C(=O)O3)c2)c1 [Example 80, 6-[3-({2-[(S)-2-oxo-3-(3-oxo-3,4-dihydro-2H-pyrido[3,2-b][1,4]oxazin-6-yl)-oxazolidin-5-yl]-ethylamino}-methyl)-phenyl]-pyridazine-4-carbonitrile]
≤ 0.016 | 0.5 (≈ 1.07 µM) | 4 (≈ 8.54 µM) | 0.5 (≈ 1.07 µM) | 0.5 (≈ 1.07 µM) | N#Cc1cccc(-c2cccc(CNCC[C@H]3CN(c4ccc5c(c4)NC(=O)CO5)C(=O)O3)c2)c1 [Example 82, 3′-({2-[(S)-2-oxo-3-(3-oxo-3,4-dihydro-2H-benzo[1,4]oxazin-6-yl)-oxazolidin-5-yl]-ethylamino}-methyl)-biphenyl-3-carbonitrile]
